Laboratory results taken from patent US8288410B2, “3-substituted quinolinium and 7H-indolo[2,3-c]quinolinium salts as new antiinfectives” (Florida Agricultural and Mechanical University, priority 2008, dated 2012).

Columns and labels:
[1] = tested on: Candida albicans ATTC 90028; experiment: Antifungal susceptibility testing, Candida albicans; format: cell-based; conditions: Table 1
Protocol: (§1) Using standard susceptibility tests, the compounds of the invention were determined to be active against MRSA, C. neoformans and several other bacteria, fungi and protozoa. More specifically, the antibacterial and antifungal testing was carried out in the following manner. Cryptococcus neoformans ATCC 90113 and MRSA were obtained from the American Type Culture Collection (Manassas. Va.). Several others including Candida albicans ATTC 90028, Aspergillus fumigatus ATCC 90906 and Mycobacterium intracellulare (M. intracellulare) ATCC 23086 were also procured. Susceptibility testing was performed using a modified version of the National Committee for Clinical Laboratory Standards method. M. intracellulare was tested using a modified method of Franzblau, et al., J. Clin. Microbiol., 1998, 36, 362-366. DMSO solutions of samples were serially diluted in saline, and transferred in duplicate to 96 well microplates. Microbial suspensions were diluted in the broth to afford desired colony forming units/mL according to the 0.5 McFarland Standard [C. Albicans: either Saboraud Dextrose broth (SDB) or RPMI 1640, C. neoformans: SDB, A fumigatus: either YM broth (for MICS) or RPMI-1640+5% Alamar Blue.] After adding microbial cultures to the sampled afforded a final volume of 200 μL and final test concentration starting with 20 μg/mL, plates were read prior to and after final incubation using either fluorescence at 544ex/590em (M intracellulare, A. fumigatus) using the Polarstar galaxy reader (Biotek Instruments, Vermont). Growth (saline only), solvent and blank (media only) controls were included on each test plate. Drug controls [Ciprofloxacin (ICN Biomedicals, Ohio) for bacteria and Amphotericin B (ICN Biomedicals, Ohio) for fungi] were included in each assay. Percent growth was calculated and plotted versus test concentration to afford IC50 (sample concentration that affords 50% inhibition or growth of the organism). The minimum inhibitory concentration (MIC) was determined by visually inspecting the plate, and is defined as the lowest test concentration that allows no detectable growth (for Almar Blue assays, no color change from blue to pink).

MRSA = experiment: Antibacterial susceptibility testing, MRSA; format: cell-based, methicillin resistant Staphylococcus aureus; conditions: Table 1
Protocol: as §1

[2] = tested on: Cryptococcus neoformans ATCC 90113; experiment: Antifungal susceptibility testing, Cryptococcus neoformans; format: cell-based; conditions: Table 1
Protocol: as §1

[3] = tested on: Aspergillus fumigatus ATCC 90906; experiment: Antifungal susceptibility testing, Aspergillus fumigatus; format: cell-based; conditions: Table 1; Aspergillus fumigatus
Protocol: as §1

SMILES | Ca IC50 [1] | Ca MFC [1] | Ca MIC [1] | MRS IC50 (MRSA) | MRS MFC (MRSA) | MRS MIC (MRSA) | Cn IC50 [2] | Cn MFC [2] | Cn MIC [2] | A fu IC50 [3] | A fu MFC [3] | A fu MIC [3]
[I-].[O-][S+](c1cc2ccccc2[n+](CCCCCc2ccccc2)c1)c1ccccc1C(F)(F)F (stereo not shown) [XYZ-IV-90] | 15 µg/mL | — ((-) = >20 μg/mL) | — ((-) = >20 μg/mL) | 0.25 µg/mL | 10 µg/mL | 0.63 µg/mL | 5.5 µg/mL | — ((-) = >20 μg/mL) | 20 µg/mL | — ((-) = >20 μg/mL) | — ((-) = >20 μg/mL) | — ((-) = >20 μg/mL)
[I-].[O-][S+](c1cc2ccccc2[n+](CCCCCc2ccccc2)c1)c1ccccc1Br (stereo not shown) [XYZ-IV-98] | — ((-) = >20 μg/mL) | — ((-) = >20 μg/mL) | — ((-) = >20 μg/mL) | 0.35 µg/mL | — ((-) = >20 μg/mL) | 1.3 µg/mL | 5.5 µg/mL | — ((-) = >20 μg/mL) | 20 µg/mL | 15 µg/mL | — ((-) = >20 μg/mL) | — ((-) = >20 μg/mL)
[I-].[O-][S+](c1cc2ccccc2[n+](CCCCCc2ccccc2)c1)c1ccccc1F (stereo not shown) [XYZ-IV-100] | — ((-) = >20 μg/mL) | — ((-) = >20 μg/mL) | — ((-) = >20 μg/mL) | 1.5 µg/mL | — ((-) = >20 μg/mL) | 5.0 µg/mL | – | — ((-) = >20 μg/mL) | — ((-) = >20 μg/mL) | — ((-) = >20 μg/mL) | — ((-) = >20 μg/mL) | — ((-) = >20 μg/mL)
[I-].[O-][S+](c1cc2ccccc2[n+](CCCCCc2ccccc2)c1)c1ccccc1Cl (stereo not shown) [XYZ-V-9] | — ((-) = >20 μg/mL) | — ((-) = >20 μg/mL) | — ((-) = >20 μg/mL) | 0.75 µg/mL | — ((-) = >20 μg/mL) | 2.5 µg/mL | 10 µg/mL | — ((-) = >20 μg/mL) | 20 µg/mL | — ((-) = >20 μg/mL) | — ((-) = >20 μg/mL) | — ((-) = >20 μg/mL)
[I-].[O-][S+](c1cc(C(F)(F)F)cc(C(F)(F)F)c1)c1cc2ccccc2[n+](CCCCCc2ccccc2)c1 (stereo not shown) [XYZ-V-13] | 10 µg/mL | 20 µg/mL | 20 µg/mL | 0.20 µg/mL | 10 µg/mL | 0.63 µg/mL | 3.0 µg/mL | 20 µg/mL | 5.0 µg/mL | — ((-) = >20 μg/mL) | — ((-) = >20 μg/mL) | — ((-) = >20 μg/mL)
[I-].[O-][S+](c1ccc(Br)cc1)c1cc2ccccc2[n+](CCCCCc2ccccc2)c1 (stereo not shown) [XYZ-V-20] | — ((-) = >20 μg/mL) | — ((-) = >20 μg/mL) | — ((-) = >20 μg/mL) | 0.50 µg/mL | — ((-) = >20 μg/mL) | 2.5 µg/mL | 7.0 µg/mL | — ((-) = >20 μg/mL) | 10 µg/mL | — ((-) = >20 μg/mL) | — ((-) = >20 μg/mL) | — ((-) = >20 μg/mL)
COc1ccc([S+]([O-])c2cc3ccccc3[n+](CCCCCc3ccccc3)c2)cc1.[I-] (stereo not shown) [XYZ-V-21] | — ((-) = >20 μg/mL) | — ((-) = >20 μg/mL) | — ((-) = >20 μg/mL) | 7.00 µg/mL | — ((-) = >20 μg/mL) | 20 µg/mL | — ((-) = >20 μg/mL) | — ((-) = >20 μg/mL) | — ((-) = >20 μg/mL) | — ((-) = >20 μg/mL) | — ((-) = >20 μg/mL) | — ((-) = >20 μg/mL)
COc1cccc([S+]([O-])c2cc3ccccc3[n+](CCCCCc3ccccc3)c2)c1.[I-] (stereo not shown) [XYZ-V-23] | — ((-) = >20 μg/mL) | — ((-) = >20 μg/mL) | — ((-) = >20 μg/mL) | 2.50 µg/mL | — ((-) = >20 μg/mL) | 10 µg/mL | – | — ((-) = >20 μg/mL) | — ((-) = >20 μg/mL) | — ((-) = >20 μg/mL) | — ((-) = >20 μg/mL) | — ((-) = >20 μg/mL)
